How the values were obtained:
[1] = test system: F1 progeny of R and S lines of California rigid ryegrass; experiment: Glyphosate sensitivity of F1 progeny (RxS, SxR); format: in vivo, Lolium rigidum
Text: Cross-pollination is arranged in the greenhouse between one plant each of the R and S lines which have similar maturity. To prevent pollen contamination from un-wanted ryegrass, the plants are covered with transparent plastic. The likelihood of selfing is less than 3% as discussed in, for example, Thorogood, Perennial Ryegrass (Lolium perenne L.) in M. D. Casler and R. R. Duncan, eds. Turfgrass Biology, Genetics, and Breeding, John Wiley & Sons, Inc., pp. 75-105 (2003). About 500 seeds from both R and S plants are harvested at maturity and kept separately. F1 plants are grown and maintained similarly as previously described. The F1 progeny are evaluated for glyphosate sensitivity when the plants are 5 to 8 cm tall. Glyphosate is sprayed at 0.125×, 0.5×, 0.25×, 1×, 2×, 4×, 6×, and 8× and the spray solutions prepared and delivered as described previously. The response of 10 plants in each of two experiments to glyphosate is recorded 3 and 4 WAT.

[2] = test system: F2 population of rigid ryegrass; experiment: Glyphosate sensitivity of F2 population (RxS intercross); format: in vivo, Lolium rigidum; settings: of 400 F2 plants
Method: Twenty uniform non-sprayed plants of the F1 progeny (R×S) are grown and pooled to allow intercrossing to generate F2. Seeds are harvested at maturity and grown as described previously. Glyphosate sensitivity is further evaluated in the F2 population. At the tillering stage, as described previously, 400 plants of the F2 population are sprayed with 0.125× glyphosate (the rate used to identify the sensitive parent). The number of sensitive plants (severely injured and dead) is recorded 3 to 4 WAT. The survivors are re-acclimated for another week and re-sprayed with 8× glyphosate (the rate used to identify the resistant parent). The number of survivors is recorded 3 to 4 WAT. […] Expected ratios in the F2 population between sensitive, intermediate, and the resistant are evaluated with the model of one or two genes involved in the inheritance of glyphosate resistance as discussed in, for example, Diggle and Neve in Herbicide Resistance and World Grains, S. B. Powles and D. L. Shaner, eds. CRC Press, Boca Raton, London, New York, Washington, D.C., pp. 61-99 (2001). Chi-square analyses are used to determine the most acceptable ratio for F2 segregation and the inheritance of the glyphosate resistance.

[3] = test system: backcrossed turfgrass samples; experiment: Glyphosate resistance phenotype of backcrossed turfgrass samples; format: in vivo
Text: In some embodiments, the germplasm can have more than one glyphosate resistant allele. At least one of the glyphosate resistant alleles is the single nucleotide polymorphism (“SNP”) for the EPSPS gene at nt301 of SEQ. ID. NO. 1. By sequencing of the EPSPS from sensitive and resistant ryegrass biotypes the SNP was identified. A change from cytosine to thymine at this position changes the amino acid from proline to serine. The SNP at nt301 of SEQ. ID. NO. 1 can be used as a marker to identify plants that carry the allele of the resistant form of EPSPS. As shown in Table 1 and highlighted in the Examples below, a second allele can contribute to the glyphosate resistance.
Having both the first allele (the SNP) and the second allele in a plant such as, for example, a turf grass, can increase resistance to glyphosate. In some embodiments, the second allele may be attributed to glyphosate oxidoreductase (“GOX”) enzyme encoded by a GOX gene. Only one of the alleles may be needed to produce a glyphosate resistant plant such as for example, a turfgrass. In some embodiments, the second allele can be identified as the Gly-Rest 2 gene. The Gly-Rest 2 gene encodes a glyphosate resistant protein that can be identified as the Gly-Resist Protein (“GRP”) which is different from the glyphosate resistant EPSPS. To identify which plants have only the GRP protein, the following is an example of an analysis that can be useful. The plants that have been crossed with a known glyphosate resistant parent are grown. A herbicidally effective amount of glyphosate is applied to the plants. The plants that survive the application are selected and a part of the plant is then used to determine if a biomarker for glyphosate resistant EPSPS is present. An example of such an analysis is discussed in the examples below. If the biomarker is present, then the plant has at least glyphosate resistant EPSPS and may have GRP. […] A biomarker analysis for GRP can be designed and designing such an analysis is well within the knowledge of those skilled in the art.

[4] = test system: perennial ryegrass; experiment: Glyphosate sensitivity of perennial ryegrass parent; format: in vivo, Lolium perenne; settings: sensitive parent
Method: The R biotype of California rigid ryegrass, which survived 8× glyphosate and perennial ryegrass, which died from 0.25× of glyphosate, are grown individually in 950-ml pots with professional planting mix media as discussed above. Plants are maintained in greenhouse with supplemental light, watered daily, and fertilized weekly with NPK water soluble fertilizer (20-20-20). At the mature vegetative stage, perennial ryegrass plants are vernalized in the growth chamber with the temperature 4 ±1 C, 8 h day and 16 h night. After 4 weeks vernalization, the plants are removed and maintained in greenhouse until flowering.
Segregation of glyphosate sensitivity in the F2 population is illustrated in FIG. 4. The percentage of the sensitive plants in F2 (16 percent) is higher than expected due to the glyphosate rate (0.5×) exceeded the sensitivity level of sensitive parents.

O=C(O)CNCP(=O)(O)O [glyphosate, N-(phosphonomethyl) glycine]
injury ([1]; 2× glyphosate, 4 WAT): 20-30% | recovery from injury ([1]; 2× glyphosate, after 5 weeks): full recovery | highest glyphosate rate survived ([1]; F1 progeny (RxS) and (SxR)): up to 2 × | effect on F1 plants ([1]; glyphosate at 4× and higher rates): killed | Sensitive plants (died from 0.125× glyphosate), observed ([2]; 0.125× glyphosate, 3 to 4 WAT): 27 plants | Intermediate plants (0.125x-8x), observed ([2]; between 0.125× and 8× glyphosate): 352 plants | Resistant plants (survived 8× glyphosate), observed ([2]; re-sprayed with 8× glyphosate, 3 to 4 WAT): 21 plants | Phenotype (Dead) ([3]; sample 1 S control, SNP No): 1X | Phenotype (Dead) ([3]; sample 2 R control, SNP Yes): 8X | Phenotype (Dead) ([3]; sample 3, SNP No): 2X | Phenotype (Dead) ([3]; sample 4, SNP Yes): 2X | Phenotype (Dead) ([3]; sample 5, SNP Yes): 8X | Phenotype (Dead) ([3]; sample 6, SNP No): 1X | Phenotype (Dead) ([3]; sample 7, SNP No): 4X | Phenotype (Dead) ([3]; sample 8, SNP No): 1X | Phenotype (Dead) ([3]; sample 9, SNP Yes): 4X | Phenotype (Dead) ([3]; sample 10, SNP No): 4X | Phenotype (Dead) ([3]; sample 11, SNP Yes): 4X | Phenotype (Dead) ([3]; sample 12, SNP Yes): 4X | Phenotype (Dead) ([3]; sample 13, SNP No): 1X | Phenotype (Dead) ([3]; sample 14, SNP No): 2X | Phenotype (Dead) ([3]; sample 15, SNP Yes): 4X | Phenotype (Dead) ([3]; sample 16, SNP Yes): 4X | Phenotype (Dead) ([3]; sample 17, SNP Yes): 6X | Phenotype (Dead) ([3]; sample 18, SNP Yes): 2X | Phenotype (Dead) ([3]; sample 19, SNP No): 4X | Phenotype (Dead) ([3]; sample 20, SNP No): 4X | Phenotype (Dead) ([3]; sample 21, SNP No): 4X | Phenotype (Dead) ([3]; sample 22 S control, SNP No): 1X | Phenotype (Dead) ([3]; sample 23 R control, SNP Yes): 8X | sensitivity level (glyphosate rate from which plants died) [4]: 0.25 ×

— patent US7906709B2, “Methods for breeding glyphosate resistant plants and compositions thereof” (priority 2006, dated 2011)
